Data: patent publication US10087144B2, “Agents for use in the treatment of cardiovascular and inflammatory diseases structurally based on 4(1 H)-quinolone” (UCL Business PLC, priority 2015, dated 2018)
Read-outs that look alike come from different tables or passages of the source.

Experiments:
rat mesenteric arteries = assay: Vasoreactivity in rat mesenteric arteries in vitro (relaxation of U46619-contracted vessels, tension myograph); conditions: for EC50: vasorelaxation, calculated from concentration-response curves
Procedure: Male rats (Sprague-Dawley; 200-250 g) were stunned and killed by cervical dislocation. The mesentery was removed and third-order arteries mounted in an automated tension myograph (Danish Myotechnology). After an equilibration period of 45 min, vessels were normalized and diameter determined. Following normalization, each vessel was contracted repeatedly with the thromboxane A2-mimetic 9,11-dideoxy-11^α,9^α-epoxymethano-prostaglandin F2α (U46619; 1 μM) until the response was reproducible. The vessels were then washed to restore basal tone before contracting to approximately 50% of the maximum U46619-induced response. Once a stable response to U46619 was achieved, cumulative concentration-response curves were constructed with a variety of NPR-C agonists of the invention at varying concentrations (0.001-30 μM), or vehicle (DMSO). In some studies, concentration-response curves to NPR-C agonists were conducted in the presence of the NPR-C antagonist M372049 (10 μM). Only one curve to any one agonist was constructed in any single tissue.

human platelets = assay: Human platelet aggregation in platelet rich plasma; format: cell-based; conditions: for inhibition at 1 µM: Homo sapiens
Procedure: Blood samples (35 ml) were taken from healthy volunteers who had abstained from aspirin, non-steroidal anti-inflammatory drugs or paracetamol for 14 days. Blood was collected by venepuncture into tri-sodium citrate (3.2% w/v) and centrifuged at 175 g for 15 min to obtain platelet rich plasma (PRP). Platelet poor plasma (PPP) was obtained by centrifugation of PRP at 15000 g for 5 min. The PRP (100 μl) was then added to the wells of 96-well plates and incubated for 15 mins with representative NPR-C agonists of the invention or vehicle (DMSO). Subsequently, platelet agonists (10 μl each) were added to wells in triplicate: adenosine diphosphate (ADP, 0.1-30 μM), arachidonic acid (AA, 0.03-1.3 mM), collagen (type I equine tendon 0.1-30 μg/ml), adrenaline (0.001-100 μM), ristocetin (0.2-3 mg/ml), TRAP6 (thrombin receptor activating peptide) amide (SFLLRN; 0.1-30 μM), U46619 (0.1-30 μM) or vehicle. Plates were then immediately placed in a 96-well plate reader and absorbance determined at 595 nm every 15 s for 16 min between vigorous shaking at 37° C. Changes in absorbance were converted to % aggregation by reference to the absorbances of PRP and PPP.

[1] = tested on: rat mesenteric artery smooth muscle cells; assay: Ca2+ flux in response to Angiotensin II in isolated rat mesenteric artery smooth muscle cells (FLIPR); format: cell-based; conditions: for inhibition at 1 µM / inhibition at 10 µM: Rattus norvegicus; for inhibition at 1 µM: read-out: % inhibition 1 μM; for inhibition at 10 µM: read-out: % inhibition 10 μM
Procedure: Mesenteric artery smooth muscle cells were isolated from male Sprague-Dawley rats (200-250 g). Mesenteric arteries were dissected, cleared of extraneous tissue and incubated in an enzyme solution containing collagenase type I (1 mg/ml), soybean trypsin inhibitor (0.25 mg/ml), bovine albumin (1 mg/ml), CaCl2 (0.2 mM), 100 U/ml penicillin (100 U/ml) and streptomycin (100 μg/ml) in a humidified incubator with 5% CO2 in air. The enzyme solution was replenished at 30 min intervals and cells were pelleted by centrifugation (200 g, 5 min) and differentially plated (×2) for 15 min in Dulbecco's Modified Eagle's Medium (DMEM) supplemented with penicillin (100 U/ml), streptomycin (100 μg/ml), L-Glutamine (2 mM) and 10% heat inactivated New Zealand foetal calf serum. Cells were passaged by trypsinisation and viability determined by trypan blue exclusion.
Measurements of Ca^2+ flux in response to Angiotensin II were conducted using a Fluorescent Imaging Plate Reader (FLIPR; Molecular Devices). Cells were plated at a density of 10,000 cells/well into black, clear-bottomed 96-well plates in DMEM supplemented with penicillin (100 U/ml), streptomycin (100 μg/ml), L-Glutamine (2 mM) and 10% heat inactivated New Zealand foetal calf serum. 24 hrs later the cells were incubated with Fluo-3-AM (4 μM) for 60 min at 37° C. Once dye-loaded, the cells were washed thoroughly with the proprietary assay buffer to remove any unincorporated dye. The cells were then incubated with varying concentrations of a number of representative NPR-C agonist molecules of the invention, C-type natriuretic peptide or vehicle (DMSO) and placed into the FLIPR. After 15 mins, Angiotensin II (100 nM) was automatically dispensed into each well and the fluorescence signal followed for 5 mins. Potency was determined by comparison of the peak fluorescence in each test well (run in triplicate) with that of the control (Angiotensin II alone). Background fluorescence (assay buffer only) was subtracted from all values.

arterial blood pressure = assay: Mean arterial pressure measurements in anesthetized mice; format: in vivo
Procedure: Mice were maintained under anesthesia (isoflurane, 1-1.5%, in 100% O2 at 0.4 L·min) throughout the experiment and body temperature was kept constant at 37.5° C. A Millar pressure transducer catheter (Millar Instruments, Houston, Tex., USA) was placed in the carotid artery for arterial blood pressure (BP) measurements and a tube catheter (polyvinyl tubing, 0.61 mm outside diameter) in the jugular vein for intravenous bolus doses of 118 ([…]) and vehicle (10% DMSO in PBS) using a 0.5 mL insulin syringe. A pump (flow 0.5 ml/h) was used for infusion of 118 (1 mg/kg/min) or vehicle (10% dimethylsulfoxide; DMSO in PBS) during 10 min. BP was evaluated throughout.

Human NPR-C = Human NPR-C (Homo sapiens (Human), UniProt P17342); assay: Surface plasmon resonance (SPR) spectroscopy, binding to immobilised human NPR-C; conditions: FIGS. 5, 6 and 7
Procedure: All SPR analysis was performed on a BIAcore T200 system using series S CM5 sensor chips. Data processing and analysis were performed using BIAevaluation software and Scrubber2. All sensorgrams were double referenced by subtracting the response on a reference flowcell and a blank sample.
Human NPR-C (OriGene, Rockville, USA), was covalently attached to a CM5 chip via amine coupling. A surface density of 2700 RU was used for measurements with natriuretic peptides and the NPR-C antagonist M372049, and a density of 5200 RU for measurements with compound 118. Sequential injections of CNP (0.25, 0.50, 1, 2 & 4 nM) were performed at a flow rate of 30 μL/min for (240 s for each), followed by a dissociation time of 3600 s. Binding site saturation was observed and the surface was regenerated by two injections of 1M NaCl (200 s each). Binding of M372049 (0.94, 1.88, 3.75, 7.5, 15, 30 & 60 nM) and Compound 118 (1.17, 2.34, 4.70, 9.38, 18.75, 37.50, 75 & 150 μM) was analysed by sequential injections (120 s for M372049, 30 s for compound 118) followed by undisturbed dissociation (600 s for M372049, 30 s for compound 118), during which curves returned to baseline. Kinetic parameters were calculated assuming a simple 1:1 (Langmuir) binding.

[2] = 1 μM compound, inhibition of Angiotensin II (100 nM) Ca2+ flux peak fluorescence
[3] = 10 μM compound, inhibition of Angiotensin II (100 nM) Ca2+ flux peak fluorescence

Sequence of Human NPR-C (P17342 27-541): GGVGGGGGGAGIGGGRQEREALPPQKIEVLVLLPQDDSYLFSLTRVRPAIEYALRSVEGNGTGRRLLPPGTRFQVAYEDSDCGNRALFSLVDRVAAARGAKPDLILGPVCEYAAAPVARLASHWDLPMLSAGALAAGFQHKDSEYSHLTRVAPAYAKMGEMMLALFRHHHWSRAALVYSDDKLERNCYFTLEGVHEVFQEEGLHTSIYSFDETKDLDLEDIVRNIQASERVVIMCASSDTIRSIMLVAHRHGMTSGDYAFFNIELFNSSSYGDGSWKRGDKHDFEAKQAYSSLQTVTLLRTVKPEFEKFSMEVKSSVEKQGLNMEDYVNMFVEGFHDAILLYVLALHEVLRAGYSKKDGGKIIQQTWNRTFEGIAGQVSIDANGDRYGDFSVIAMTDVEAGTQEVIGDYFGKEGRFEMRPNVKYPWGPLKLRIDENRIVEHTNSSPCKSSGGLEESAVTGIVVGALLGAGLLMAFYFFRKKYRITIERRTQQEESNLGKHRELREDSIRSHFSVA

## CC(C)(C)OC(=O)CNC(=O)c1cn(Cc2ccccc2)c2ccc(Br)cc2c1=O [Compound 28, tert-butyl 2-(1-benzyl-6-bromo-4-oxo-1,4-dihydroquinoline-3-carboxamido)acetate]
Rat mesenteric arteries; Rattus norvegicus, 1 μM, U46619-contracted third-order arteries
  inhibition at 1 µM: 22%
Rat mesenteric arteries; Rattus norvegicus, 3 μM, U46619-contracted third-order arteries
  inhibition at 3 µM: 55%
Rat mesenteric arteries; Rattus norvegicus, 10 μM, U46619-contracted third-order arteries
  inhibition at 10 µM: 97%
Rat mesenteric arteries; Rattus norvegicus, 30 μM, U46619-contracted third-order arteries
  inhibition at 30 µM: 100%
Rat mesenteric arteries; Rattus norvegicus
  EC50: 1.6 µM
Human platelets
  inhibition at 1 µM: 14.3%
[1]
  inhibition at 1 µM: 100%
  inhibition at 10 µM: 100%

## O=C(O)CNC(=O)c1cn(Cc2ccccc2)c2ccc(Br)cc2c1=O [Compound 118, 2-(1-benzyl-6-bromo-4-oxo-1,4-dihydroquinoline-3-carboxamido)acetic acid]
Rat mesenteric arteries; Rattus norvegicus
  EC50: 2.8 µM
Human platelets
  inhibition at 1 µM: 16.7%
Arterial blood pressure; i.v. bolus, FIG. 2
  change in BP after intravenous bolus doses: dose-dependent decrease in BP
Arterial blood pressure; infusion 1 mg/kg/min during 10 min, FIG. 3
  change in BP during infusion: reduction in BP that was sustained during 10 minutes
Human NPR-C
  binding to human NPR-C (SPR): binding
[1]; [2]
  inhibition at 1 µM: 95%
[1]; [3]
  inhibition at 10 µM: 100%

## C-type natriuretic peptide [CNP, reference compound]
Rat mesenteric arteries
  EC50: 0.0138 µM
Human platelets
  % inhibition of human platelet aggregation (at 1 microM): 71.8%
Human NPR-C
  binding to human NPR-C (SPR): binding
[1]; [2]
  % inhibition 1 μM: 100%
[1]; [3]
  % inhibition 10 μM: 100%
